Experimental data reported in patent US6737383B1, “Herbicidal oxadiazolidines” (priority 1999, dated 2004).

What was measured:
redroot pigweed = assay: Test E redroot pigweed; assay type: in vivo, Amaranthus retroflexus; conditions: Preemergence; for Redroot pigweed plant response rating (0 to 100 scale): Rate 250 g/ha
wild mustard = assay: Test E wild mustard; assay type: in vivo, Sinapis arvensis; conditions: Preemergence; for Wild mustard plant response rating (0 to 100 scale): Rate 250 g/ha
velvetleaf = assay: Test C postemergence velvetleaf; assay type: in vivo, Abutilon theophrasti; conditions: 0 to 100 scale, 0 no effect, 100 complete control
Description: (§1) Compounds evaluated in this test were formulated in a non-phytotoxic solvent mixture which included a surfactant and applied to plants that were grown for various periods of time before treatment (postemergence application). A mixture of sandy loam soil and greenhouse potting mix in a 60:40 ratio was used for the postemergence test.
(§2) Plantings of these crops and weed species were adjusted to produce plants of appropriate size for the postemergence test. All plant species were grown using normal greenhouse practices. Crop and weed species include arrowleaf sida (Sida rhombifolia), barnyardgrass (Echinochloa crus-galli), cocklebur (Xanthium strumarium), common ragweed (Ambrosia elatior), corn (Zea mays), cotton (Gossypium hirsutum), eastern black nightshade (Solanum ptycanthum), fall panicum (Panicum dichotomiflorum), field bindweed (Convolvulus arvensis), giant foxtail (Setaria faberii), hairy beggarticks (Bidens pilosa), ivyleaf morningglory (Ipomoea hederacea), johnsongrass (Sorghum halepense), ladysthumb smartweed (Polygonum persicaria), lambsquarters (Chenopodium album), large crabgrass (Digitaria sanguinalis), purple nutsedge (Cyperus rotundus), redroot pigweed (Amaranthus retroflexus), soybean (Glycine max), surinam grass (Brachiaria decumbens), velvetleaf (Abutilon theophrasti) and wild poinsettia (Euphorbia heterophylla).
(§3) Treated plants and untreated controls were maintained in a greenhouse for approximately 14, to 21 days, after which all treated plants were compared to untreated controls and visually evaluated. Plant response ratings, summarized in Table C, were based upon a 0 to 100 scale where 0 was no effect and 100 was complete control. A dash response (−) means no test result.

windgrass = assay: Test E windgrass; assay type: in vivo, Apera spica-venti; conditions: Postemergence; for Plant response rating, Windgrass: 0 to 100 scale
How it was run: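 Compounds formulated in non-phytotoxic solvent mixture with surfactant; for postemergence, sprayed on plants at 1- to 4-leaf stage grown in 60:40 sandy loam/greenhouse potting mix. Kept in greenhouse ~21 to 28 days, then visually rated against untreated controls.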

Russian thistle = assay: Test E Russian thistle; assay type: in vivo, Salsola kali; conditions: Postemergence; for Plant response rating, Russian thistle: 0 to 100 scale; for Russian thistle plant response rating: Rate 250 g/ha, 0 to 100 scale where 0 is no effect and 100 is complete control
Description: […] A mixture of sandy loam soil and greenhouse potting mix in a 60:40 ratio was used for the postemergence test.
(§4) Plantings of these crops and weed species were adjusted to produce plants of appropriate size for the postemergence test. All plant species were grown using normal greenhouse practices. Crop and weed species include annual bluegrass (Poa annua), blackgrass (Alopecurus myosuroides), black nightshade (Solanum nigra), chickweed (Stellaria media), common poppy (Papaver rhoeas), deadnettle (Lamium amplexicaule), downy brome (Bromus tectorum), field violet (Viola arvensis), galium (Galium aparine), green foxtail (Setaria viridis), Italian ryegrass (Lolium multiflorum), jointed goatgrass (Aegilops cylindrica), kochia (Kochia scoparia), lambsquarters (Chenopodium album), littleseed canarygrass (Phalaris minor), rape (Brassica napus), redroot pigweed (Amaranthus retroflexus), Russian thistle (Salsola kali), scentless chamomile (Matricaria inodora), spring barley (Hordeum vulgare), sugar beet (Beta vulgaris), sunflower (Helianthus annuus), ivyleaf speedwell (Veronica hederaefolia), spring wheat (Triticum aestivum), winter wheat (Triticum aestivum), wild buckwheat (Polygonum convolvulus), wild mustard (Sinapis arvensis), wild oat (Avena fatua), windgrass (Apera spica-venti) and winter barley (Hordeum vulgare).
(§5) Treated plants and untreated controls were maintained in a greenhouse for approximately 21 to 28 days, after which all treated plants were compared to untreated controls and visually evaluated. […] A dash response (-) means no test result.

giant foxtail = assay: Test C postemergence giant foxtail; assay type: in vivo, Setaria faberii; conditions: 0 to 100 scale, 0 no effect, 100 complete control
How it was run: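 Visual ratings on a 0 to 100 scale, where 0 means no effect and 100 complete control, were made versus untreated controls roughly 14 to 21 days after postemergence treatment. Test compounds were formulated in a non-phytotoxic solvent mixture containing a surfactant.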

jointed goatgrass = assay: Test E jointed goatgrass; assay type: in vivo, Aegilops cylindrica; conditions: Postemergence; for Plant response rating, Jointed goatgra: 0 to 100 scale; for Jointed goatgra plant response rating: Rate 250 g/ha, 0 to 100 scale where 0 is no effect and 100 is complete control
Description: as §1, with “in the 1- to 4-leaf stage” for “grown for various periods of time before treatment”
as §4, §5

fall panicum = assay: Test C postemergence fall panicum; assay type: in vivo, Panicum dichotomiflorum; conditions: 0 to 100 scale, 0 no effect, 100 complete control
Description: as §1, §2, §3

common groundsel = assay: Test D common groundsel; assay type: in vivo, Senecio vulgaris; conditions: Postemergence, 0 to 100 scale
Alexandergrass = assay: Test D Alexandergrass; assay type: in vivo, Brachiaria plantaginea; conditions: Postemergence, 0 to 100 scale
Green foxtail = assay: Test D green foxtail; assay type: in vivo; conditions: Postemergence, 0 to 100 scale, 0 no injury, 100 complete control
bermuda-grass = assay: Test D bermudagrass; assay type: in vivo, Cynodon dactylon; conditions: Postemergence, 0 to 100 scale
[1] = Rate 125 g/ha, 0 to 100 scale (0 no effect, 100 complete control)
[2] = Rate 32 g/ha, 0 no injury, 100 complete control
[3] = Rate 125 g/ha, 0 no injury, 100 complete control
[4] = Rate 16 g/ha, 0 no injury, 100 complete control
[5] = Rate 64 g/ha, 0 no injury, 100 complete control
[6] = Rate 500 g/ha, 0 to 100 scale where 0 is no effect and 100 is complete control
[7] = Rate 125 g/ha, 0 is no effect, 100 is complete control
[8] = Rate 500 g/ha, 0 is no effect, 100 is complete control

CC(C)N(C(=O)n1oc(=O)n(C)c1=O)c1ccc(F)cc1 [Compound 138]
Plant response rating, Redroot pigweed (redroot pigweed; [1]): 90 | Redroot pigweed plant response rating (0 to 100 scale) (redroot pigweed): 90 | Plant response rating, Wild mustard (wild mustard; [1]): 40 | Wild mustard plant response rating (0 to 100 scale) (wild mustard): 55 | Plant response rating, Velvetleaf (velvetleaf; Rate 140 g/ha): 0 | Plant response rating, Velvetleaf (velvetleaf; Rate 280 g/ha): 60 | Plant response rating, Velvetleaf (velvetleaf; Rate 560 g/ha): 70 | Plant response rating, Velvetleaf (velvetleaf; Rate 1120 g/ha): 80 | Windgrass plant response rating (windgrass; Rate 250 g/ha, 0 to 100 scale where 0 is no effect and 100 is complete control): 95 | Plant response rating, Russian thistle (Russian thistle; Rate 125 g/ha): 0 | Russian thistle plant response rating (Russian thistle): 0 | Plant response rating, Giant foxtail (giant foxtail; Rate 140 g/ha): 0 | Plant response rating, Giant foxtail (giant foxtail; Rate 280 g/ha): 15 | Plant response rating, Giant foxtail (giant foxtail; Rate 560 g/ha): 80 | Plant response rating, Giant foxtail (giant foxtail; Rate 1120 g/ha): 85 | Plant response rating, Jointed goatgra (jointed goatgrass; Rate 125 g/ha): 0 | Jointed goatgra plant response rating (jointed goatgrass): 0 | Plant response rating Fall panicum (fall panicum; Rate 140 g/ha): 0 | Plant response rating Fall panicum (fall panicum; Rate 280 g/ha): 0 | Plant response rating Fall panicum (fall panicum; Rate 560 g/ha): 60 | Plant response rating Fall panicum (fall panicum; Rate 1120 g/ha): 90

CC(C)N(C(=O)n1oc(=O)n(C2CCCCCC2)c1=O)c1ccc(F)cc1F [Compound 342]
Plant response rating, Com. groundsel (common groundsel; [2]): 0 | Plant response rating, Com. groundsel (common groundsel; [3]): 0 | Plant response rating, Com. groundsel (common groundsel; Rate 250 g/ha): 0 | Plant response rating, Alexandergrass (Alexandergrass; [4]): 0 | Plant response rating, Alexandergrass (Alexandergrass; [2]): 0 | Plant response rating, Alexandergrass (Alexandergrass; [5]): 0 | Plant response rating, Alexandergrass (Alexandergrass; [3]): 70 | Plant response rating, Alexandergrass (Alexandergrass; Rate 250 g/ha): 80 | Plant response rating, Green foxtail (Green foxtail; Rate 64 g/ha): 0 | Plant response rating, Green foxtail (Green foxtail; Rate 125 g/ha): 60 | Plant response rating, Bermudagrass (bermuda-grass; [4]): 20 | Plant response rating, Bermudagrass (bermuda-grass; [2]): 30 | Plant response rating, Bermudagrass (bermuda-grass; [5]): 90 | Plant response rating, Bermudagrass (bermuda-grass; [3]): 100 | Plant response rating, Bermudagrass (bermuda-grass; Rate 250 g/ha): 100

CC(C)N(C(=O)n1oc(=O)n(C2CC2)c1=O)c1ccc(F)cc1 [Compound 242]
Plant response rating, Redroot pigweed (redroot pigweed; [1]): 90 | Redroot pigweed plant response rating (0 to 100 scale) (redroot pigweed): 100 | Plant response rating, Redroot pigweed (redroot pigweed; [6]): 100 | Plant response rating, Com. groundsel (common groundsel; [4]): 0 | Plant response rating, Com. groundsel (common groundsel; [2]): 100 | Plant response rating, Com. groundsel (common groundsel; [5]): 90 | Plant response rating, Com. groundsel (common groundsel; [3]): 90 | Plant response rating, Com. groundsel (common groundsel; Rate 250 g/ha): 100 | Plant response rating, Wild mustard (wild mustard; [1]): 65 | Wild mustard plant response rating (0 to 100 scale) (wild mustard): 65 | Plant response rating, Wild mustard (wild mustard; [6]): 70 | Plant response rating, Alexandergrass (Alexandergrass; [4]): 0 | Plant response rating, Alexandergrass (Alexandergrass; [2]): 50 | Plant response rating, Alexandergrass (Alexandergrass; [5]): 90 | Plant response rating, Alexandergrass (Alexandergrass; [3]): 100 | Plant response rating, Alexandergrass (Alexandergrass; Rate 250 g/ha): 100 | Plant response rating, Velvetleaf (velvetleaf; Rate 140 g/ha): 0 | Plant response rating, Velvetleaf (velvetleaf; Rate 280 g/ha): 0 | Plant response rating, Velvetleaf (velvetleaf; Rate 560 g/ha): 40 | Plant response rating, Velvetleaf (velvetleaf; Rate 1120 g/ha): 60 | Plant response rating, Green foxtail (Green foxtail; Rate 64 g/ha): 100 | Plant response rating, Green foxtail (Green foxtail; Rate 125 g/ha): 100 | Plant response rating, Windgrass (windgrass; Rate 62 g/ha): 90 | Plant response rating, Windgrass (windgrass; [7]): 95 | Plant response rating, Windgrass (windgrass; [8]): 95 | Plant response rating, Russian thistle (Russian thistle; Rate 62 g/ha): 50 | Plant response rating, Russian thistle (Russian thistle; [7]): 0 | Russian thistle plant response rating (Russian thistle): 0 | Plant response rating, Russian thistle (Russian thistle; [8]): 0 | Plant response rating, Giant foxtail (giant foxtail; Rate 140 g/ha): 40 | Plant response rating, Giant foxtail (giant foxtail; Rate 280 g/ha): 60 | Plant response rating, Giant foxtail (giant foxtail; Rate 560 g/ha): 80 | Plant response rating, Giant foxtail (giant foxtail; Rate 1120 g/ha): 85 | Plant response rating, Jointed goatgra (jointed goatgrass; Rate 62 g/ha): 55 | Plant response rating, Jointed goatgra (jointed goatgrass; [7]): 0 | Jointed goatgra plant response rating (jointed goatgrass): 0 | Plant response rating, Jointed goatgra (jointed goatgrass; [8]): 40 | Plant response rating Fall panicum (fall panicum; Rate 140 g/ha): 30 | Plant response rating Fall panicum (fall panicum; Rate 280 g/ha): 85 | Plant response rating Fall panicum (fall panicum; Rate 560 g/ha): 90 | Plant response rating Fall panicum (fall panicum; Rate 1120 g/ha): 90 | Plant response rating, Bermudagrass (bermuda-grass; [4]): 90 | Plant response rating, Bermudagrass (bermuda-grass; [2]): 100 | Plant response rating, Bermudagrass (bermuda-grass; [5]): 100 | Plant response rating, Bermudagrass (bermuda-grass; [3]): 100 | Plant response rating, Bermudagrass (bermuda-grass; Rate 250 g/ha): 100
